Assay results: patent publication US20220274947A1, “NOVEL HETEROARYL-TRIAZOLE COMPOUNDS AS PESTICIDES” (Bayer Aktiengesellschaft, priority 2019, published 2022)

Tests used:
Assay type in all cases: in vivo
[1] = tested on: Rhipicephalus sanguineus; assay: Rhipicephalus sanguineus in-vitro contact test, adult brown dog ticks (RHIPSA Cont); settings: 48 h, after 48 hours, read-out: activity (efficacy: 100% means all ticks are dead or moribund)
In short: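 Compound in acetone (9 mg/mL stock, diluted to test concentration) is coated onto inner walls of glass tubes by rotation for 2 h at 30 rpm. Efficacy is read after 48 h: ticks are tapped down and held on a 45-50° C plate for at most 5 min, and immotile or uncoordinated ones that fail to climb away count as dead or moribund.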

[2] = tested on: Rhipicephalus microplus; assay: Rhipicephalus (Boophilus) microplus in-vitro contact test, larval cattle tick, strain Parkhurst (BOOPMI Cont); settings: application rate 5 μg/cm^2 (=500 g/ha), tick larvae, after 48 hours, read-out: activity (efficacy: 100% means all larvae are dead or moribund)
In short: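 After 48 h at 27° C. and 85% humidity, percent dead or moribund larvae was scored from negative geotactic behaviour. Larvae (20-50, Parkhurst strain, synthetic pyrethroid-resistant) were exposed in tubes coated with compound from acetone, 900 ppm corresponding to 5 μg/cm^2.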

[3] = tested on: Aedes aegypti strain MONHEIM; assay: Aedes aegypti test (AEDSAE surface treatment & contact assay); settings: exposure 30 minutes, 24 hours after contact, read-out: efficacy (mortality); for mortality at 20 mg/m2: surface concentration 20 mg/m^2, glazed tile
In short: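 Compound dissolved in acetone (2 mg/ml) with 2000 ppm rapeseed oil methyl ester, pipetted onto glazed tile and dried. Adult mosquitoes exposed on the surface for 30 min; percent mortality scored 24 h after contact.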

[4] = tested on: Spodoptera frugiperda; assay: Spodoptera frugiperda spray test; settings: in Zea mays, 168 h, read-out: activity (mortality)
In short: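 Percent kill of fall armyworm caterpillars was assessed 7 days after infesting dried, treated maize leaf sections. Treatment was a spray of compound in acetone/dimethylformamide, diluted with water containing emulsifier at 1000 ppm.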

[5] = tested on: Diabrotica balteata; assay: Diabrotica balteata spray test; settings: 168 h, application rate 100 g/ha (=32 μg/well), wheat seeds, larvae, after 7 days, read-out: activity (efficacy: 100% means all seedlings have grown up like in the untreated, uninfected control)
In short: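 Efficacy (%) was scored 7 days after spraying, with 100% meaning growth like the untreated, uninfected control and 0% meaning no seedling grew. Spray solutions of compound in acetone/DMF with emulsifier-containing water went onto 1-day-germinated wheat seeds, and each unit was then infested with 10-20 banded cucumber beetle larvae.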

[6] = tested on: Meloidogyne incognita; assay: Meloidogyne incognita test; settings: application rate 20 ppm, salad seedlings, after 14 days
Experimental: Meloidogyne incognita—Test Solvent: 125.0 parts by weight of acetone
To produce a suitable preparation of active compound, 1 part by weight of active compound is mixed with the stated amount of solvent, and the concentrate is diluted with water to the desired concentration.
Vessels are filled with sand, a solution of the active ingredient, a suspension containing eggs and larvae of the southern root-knot nematode (Meloidogyne incognita) and salad seeds. The salad seeds germinate and the seedlings grow. Galls develop in the roots.
After 14 days the nematicidal activity is determined based on the percentage of gall formation. 100% means no galls were found and 0% means the number of galls found on the roots of the treated plants was equal to that in untreated control plants.

[7] = tested on: Rhipicephalus microplus; assay: Rhipicephalus (Boophilus) microplus injection test (BOOPMI Inj); settings: 168 h, injection into adult engorged female ticks, egg deposition after 7 days, read-out: activity (efficacy: 100% means all eggs are infertile); for pest or weed control at 0.004 mg: application rate 4 μg/tick
In short: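 Compound in DMSO, 1 μL, injected abdominally into five adult engorged females, which were then held in a climate chamber. Read-out is egg fertility, scored from deposition at 7 days, with unclear eggs followed to hatching (~42 days); 0% means all eggs fertile, 100% all infertile.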

[8] = tested on: Ctenocephalides felis; assay: Ctenocephalides felis oral test (CTECFE Oral); settings: 48 h, read-out: activity (mortality)
In short: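 Percent mortality was recorded 2 days after roughly 20 adult Ctenocephalides felis fed on treated cattle blood. The blood was warmed to 37 °C beneath a parafilm membrane, with the fleas kept at room temperature. Compound was dissolved in DMSO and diluted into the blood to test concentration.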

[9] = tested on: Myzus persicae; assay: Myzus persicae oral test; settings: 120 h, read-out: activity (mortality)
In short: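 Percent mortality was recorded at day 5, where 0% means no aphids killed. Compound prepared from an acetone concentrate diluted in water and combined with IPL41 medium containing sugar was offered to mixed-stage green peach aphids, which sucked it through a parafilm seal.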

[10] = tested on: Blattella germanica strain PAULINIA; assay: Blattella germanica test (BLTTGE surface treatment & contact assay); settings: surface concentration 20 mg/m^2, glazed tile, exposure 30 minutes, 24 hours after contact, read-out: efficacy (mortality)
Experimental: Blattella germanica Test (BLTTGE Surface Treatment & Contact Assay) Solvent: Aceton+2000 ppm rapeseed oil methyl ester (RME)
In order to produce a sufficient, active ingredient containing solution it is necessary to solve the test compound in the solvent-mix (acetone at 2 mg/ml/RME 2000 ppm). This solution is pipetted onto a glazed tile and after evaporation of the acetone, adult animals of the species Blattella germanica strain […] are placed onto the dried surface. The exposure time is 30 minutes. Mortality in percent (%) is determined 24 hours after contact of the insects to the treated surface. 100% mortality means that all tested insects are dead, whereas 0% means that no insect died.

[11] = tested on: Tetranychus urticae; assay: Tetranychus urticae spray test, OP-resistant; settings: foliar, 144 h, application rate 500 g/ha, French bean leaf disks, after 6 days
Experimental: Tetranychus urticae—Spray Test OP-Resistant Solvent: 78.0 parts by weight acetone • 1.5 parts by weight dimethylformamide Emulsifier: alkylarylpolyglycol ether
To produce a suitable preparation of active compound, 1 part by weight of active compound is mixed with the stated amount of solvents and is diluted with water, containing an emulsifier concentration of 1000 ppm, to the desired concentration. Further test concentrations are prepared by dilution with emulsifier containing water.
French bean (Phaseolus vulgaris) leaf disks infected with all instars of the two spotted spidermite (Tetranychus urticae), are sprayed with a preparation of the active ingredient of the desired concentration.
After 6 days mortality in % is determined. 100% means all spider mites have been killed and 0% means none of the spider mites have been killed.

[12] = tested on: Ctenocephalides felis; assay: Ctenocephalides felis in-vitro contact test, adult cat flea (CTECFE Cont); settings: application rate 5 μg/cm^2 (=500 g/ha), adult cat fleas, after 48 hours, read-out: activity (efficacy: 100% means all fleas are dead or moribund)
In short: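 Efficacy, as percent of fleas dead or moribund, was scored 48 h after adults (5-10 per tube) were placed in glass tubes whose walls carried dried compound at 5 μg/cm^2 (900 ppm solution). Moribund meant failing to climb away from a 45-50° C. hot plate within 5 min.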

[13] = tested on: Myzus persicae; assay: Myzus persicae spray test; settings: in Brassica rapa, foliar, 120 h, read-out: activity (mortality), application rate 100 g/ha, spray, Chinese cabbage leaf disks, after 5 days
In short: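 Aphid mortality in % was assessed 5 days after spraying; leaf disks of Brassica pekinensis carrying mixed-instar green peach aphids were treated. Spray preparation: active compound in acetone plus dimethylformamide, diluted with emulsifier-containing water (1000 ppm).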

[14] = tested on: Anopheles funestus strain FUMOZ-R; assay: Anopheles funestus test (ANPHFU surface treatment & contact assay); settings: surface concentration 20 mg/m^2, glazed tile, exposure 30 minutes, 24 hours after contact, read-out: efficacy (mortality)
Experimental: Anopheles funestus Test (ANPHFU Surface Treatment & Contact Assay) Solvent: Aceton+2000 ppm rapeseed oil methyl ester (RME)
In order to produce a sufficient, active ingredient containing solution it is necessary to solve the test compound in the solvent-mix (acetone at 2 mg/ml/RME 2000 ppm). This solution is pipetted onto a glazed tile and after evaporation of the acetone, adult mosquitoes of the species Anopheles funestus strain FUMOZ-R (Hunt et al., Med. Vet. Entomol. 2005 September; 19(3): 271-275) are placed onto the dried surface. The exposure time is 30 minutes. Mortality in percent (%) is determined 24 hours after contact of the insects to the treated surface. 100% mortality means that all tested insects are dead, whereas 0% means that no insect died.

| SMILES | pest or weed control at 1 µg/cm2, 100 g/ha ([1]; application rate 1 μg/cm^2 (=100 g/ha)) | pest or weed control at 5 µg/cm2, 500 g/ha ([1]; application rate 5 μg/cm^2 (=500 g/ha)) | pest or weed control at 5 µg/cm2 [2] | mortality at 20 mg/m2 [3] | mortality at 100 g/ha [4] | pest or weed control at 32 µg/disc, 100 g/ha [5] | nematicidal activity (100% means no galls were found) [6] | pest or weed control at 0.004 mg [7] | pest or weed control at 0.02 mg ([7]; application rate 20 μg/tick) | mortality at 100 ppm [8] | mortality at 0.8 ppm [9] | mortality at 20 mg/m2 [10] | mortality at 500 g/ha [11] | pest or weed control at 5 µg/cm2 [12] | mortality at 100 g/ha [13] | mortality at 4 mg/m2 ([3]; surface concentration 4 mg/m^2, glazed tile) | mortality at 20 mg/m2 [14] |
| --- | --- | --- | --- | --- | --- | --- | --- | --- | --- | --- | --- | --- | --- | --- | --- | --- | --- |
| CC(C)c1nc([C@H](C)NC(=O)c2cc(Cl)cc(Br)c2)n(-c2ccc(C#N)cn2)n1 [I-19] | 100% | 100% | 100% | 80 to 100% | 100% | 100% | 90% | 100% | 100% | 100% |  |  |  |  |  |  |  |
| CC(=O)N(C)c1ccc(-n2ncnc2[C@H](C)NC(=O)c2cc(Cl)cc(C(F)(F)F)c2)nc1 [II-80] |  |  | 100% | 80 to 100% |  |  |  | 80% |  | 100% | 100% | 80 to 100% | 90% | 100% | 90% | 80 to 100% | 80 to 100% |
